Source: ChEMBL document CHEMBL1201862, “PubChem BioAssay data set” (2004)
One block for each molecule: values may come before it. Calls of active or inactive are those of the source.

Key:
[1] = target: Melanin-concentrating hormone receptor 1 (Homo sapiens, UniProt Q99705); assay: Late-stage fluorescence-based counterscreen for antagonists of the G-protein coupled receptor 7 (GPR7): cell-based dose response assay to identify antagonists of the melanin-concentrating hormone receptor 1 (MCHR1). [Related pubchem assays (depositor defined):AID1861, AID1880, AID1952, AID2148, AID2251, AID2257, AID485339]; assay type: functional;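 further: stimulated with 30 nM MCH peptide agonist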
Sequence of Melanin-concentrating hormone receptor 1 (Q99705 whole entry): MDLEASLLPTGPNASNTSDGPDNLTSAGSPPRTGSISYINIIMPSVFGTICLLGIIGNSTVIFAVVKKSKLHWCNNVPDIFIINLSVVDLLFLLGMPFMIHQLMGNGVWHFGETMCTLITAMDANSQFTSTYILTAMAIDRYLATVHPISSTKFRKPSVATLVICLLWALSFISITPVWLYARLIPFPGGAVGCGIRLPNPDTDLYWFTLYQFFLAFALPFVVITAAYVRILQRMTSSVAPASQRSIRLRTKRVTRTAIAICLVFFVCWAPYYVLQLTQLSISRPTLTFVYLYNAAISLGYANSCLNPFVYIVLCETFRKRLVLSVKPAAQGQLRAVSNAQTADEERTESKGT

[2] = target: Metabotropic glutamate receptor 4 (Rattus norvegicus, UniProt P31423); assay: Modulation of the Metabotropic Glutamate Receptor mGluR4: Rat PAM Potency. [Related pubchem assays (depositor defined):AID2437, AID2807]; assay type: functional
Sequence of Metabotropic glutamate receptor 4 (P31423 whole entry, the tested form may be a part): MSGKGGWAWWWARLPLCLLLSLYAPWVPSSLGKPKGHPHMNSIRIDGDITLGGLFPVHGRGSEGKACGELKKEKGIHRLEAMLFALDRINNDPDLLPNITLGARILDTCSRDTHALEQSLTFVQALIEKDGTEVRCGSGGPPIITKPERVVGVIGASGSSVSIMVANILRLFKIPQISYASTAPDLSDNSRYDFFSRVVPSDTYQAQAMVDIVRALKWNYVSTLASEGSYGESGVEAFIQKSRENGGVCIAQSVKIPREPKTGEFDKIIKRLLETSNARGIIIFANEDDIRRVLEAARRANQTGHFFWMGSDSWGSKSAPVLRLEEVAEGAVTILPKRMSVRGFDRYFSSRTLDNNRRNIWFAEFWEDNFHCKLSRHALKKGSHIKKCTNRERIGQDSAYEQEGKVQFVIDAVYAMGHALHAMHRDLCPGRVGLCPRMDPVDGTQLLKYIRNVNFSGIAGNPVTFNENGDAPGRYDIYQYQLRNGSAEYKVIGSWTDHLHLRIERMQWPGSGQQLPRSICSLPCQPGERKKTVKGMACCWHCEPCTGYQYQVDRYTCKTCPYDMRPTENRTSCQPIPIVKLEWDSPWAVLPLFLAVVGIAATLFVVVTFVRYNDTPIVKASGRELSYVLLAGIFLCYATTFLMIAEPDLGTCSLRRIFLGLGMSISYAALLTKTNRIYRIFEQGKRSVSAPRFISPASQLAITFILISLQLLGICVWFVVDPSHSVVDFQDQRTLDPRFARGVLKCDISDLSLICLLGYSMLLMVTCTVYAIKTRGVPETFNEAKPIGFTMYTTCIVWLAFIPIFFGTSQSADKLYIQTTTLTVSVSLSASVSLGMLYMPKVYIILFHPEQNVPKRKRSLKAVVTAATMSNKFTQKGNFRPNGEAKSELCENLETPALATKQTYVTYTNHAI

[3] = target: T1, RNA-binding protein pos-1 (Caenorhabditis elegans, UniProt G5EF15); assay: disruptors of C. elegans POS-1 RNA interaction – biochemical, fluorescence polarization, dose response (AID 1964);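 further: purified POS-1 fused to maltose binding protein made in E. coli; potency of compounds blocking POS-1 binding to fluorescent RNA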
T1 sequence (G5EF15 whole entry): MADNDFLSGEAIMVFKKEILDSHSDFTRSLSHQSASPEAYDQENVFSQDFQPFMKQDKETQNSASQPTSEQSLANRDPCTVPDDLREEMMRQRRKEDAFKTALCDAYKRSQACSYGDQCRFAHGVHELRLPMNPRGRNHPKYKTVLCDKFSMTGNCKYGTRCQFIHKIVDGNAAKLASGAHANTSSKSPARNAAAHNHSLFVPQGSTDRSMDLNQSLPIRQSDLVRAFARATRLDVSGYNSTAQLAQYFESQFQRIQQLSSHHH

[4] = target: T2, Zinc finger protein mex-5 (Caenorhabditis elegans, UniProt Q9XUB2); assay: potency of MEX-5 RNA-binding blockers – biochemical, C. elegans, fluorescence polarization, dose response (AID 1960)
T2 sequence (Q9XUB2 whole entry): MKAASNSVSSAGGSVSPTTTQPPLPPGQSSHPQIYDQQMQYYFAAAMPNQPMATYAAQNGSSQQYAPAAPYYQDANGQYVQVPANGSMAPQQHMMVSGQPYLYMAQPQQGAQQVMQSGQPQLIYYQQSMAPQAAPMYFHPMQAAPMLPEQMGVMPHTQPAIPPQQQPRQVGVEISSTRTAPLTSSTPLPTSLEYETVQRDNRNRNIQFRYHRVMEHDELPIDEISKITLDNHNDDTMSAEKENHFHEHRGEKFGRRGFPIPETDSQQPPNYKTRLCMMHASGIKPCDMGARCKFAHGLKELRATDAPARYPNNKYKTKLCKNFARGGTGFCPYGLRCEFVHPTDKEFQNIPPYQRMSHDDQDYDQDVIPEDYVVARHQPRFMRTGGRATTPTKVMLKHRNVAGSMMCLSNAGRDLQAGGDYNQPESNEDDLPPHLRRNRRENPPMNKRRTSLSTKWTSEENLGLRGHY

Protein Rev = Protein Rev (Human immunodeficiency virus type 1 group M subtype B (isolate HXB2)(HIV-1), UniProt P04618); assay: blockers of HIV Rev/RRE RNA complex – biochemical, fluorescence polarization, HIV-1, dose response (AID 434976); set-up: species or system Human immunodeficiency virus 1
Sequence of Protein Rev (P04618 whole entry): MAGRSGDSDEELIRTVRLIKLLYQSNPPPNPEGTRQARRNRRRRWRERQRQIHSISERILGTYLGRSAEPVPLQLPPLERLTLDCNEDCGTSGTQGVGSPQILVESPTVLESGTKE

[5] = target: Female germline-specific tumor suppressor gld-1 (Caenorhabditis elegans, UniProt Q17339); assay: blockers of GLD-1/TGE RNA complex formation – biochemical, fluorescence polarization, C. elegans, dose response (AID 2802);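 further: fluorescence polarization of labeled TGE RNA bound by purified gld-1 protein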
Cytochrome P450 3A4 = Cytochrome P450 3A4 (Homo sapiens, UniProt P08684); settings: Potency;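 further: confirmatory qHTS run detecting inhibitors and substrates of CYP3A4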
Sequence of Cytochrome P450 3A4 (P08684 whole entry): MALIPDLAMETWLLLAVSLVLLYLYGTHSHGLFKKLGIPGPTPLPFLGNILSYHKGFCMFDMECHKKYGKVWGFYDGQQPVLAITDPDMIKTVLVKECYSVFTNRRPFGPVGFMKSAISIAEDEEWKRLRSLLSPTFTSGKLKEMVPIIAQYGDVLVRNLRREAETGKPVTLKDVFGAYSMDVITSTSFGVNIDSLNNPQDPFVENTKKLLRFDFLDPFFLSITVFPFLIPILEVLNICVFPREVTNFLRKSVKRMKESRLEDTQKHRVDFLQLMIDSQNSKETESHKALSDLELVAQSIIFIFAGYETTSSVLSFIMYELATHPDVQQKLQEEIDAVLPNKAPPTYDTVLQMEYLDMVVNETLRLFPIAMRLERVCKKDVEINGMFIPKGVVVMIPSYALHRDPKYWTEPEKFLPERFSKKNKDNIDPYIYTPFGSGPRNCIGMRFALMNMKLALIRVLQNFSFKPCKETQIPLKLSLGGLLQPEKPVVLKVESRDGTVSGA

[6] = Luminescence Cell-Based Dose Confirmation HTS to Identify Inhibitors of Polyadenylation.; assay type: functional
[7] = mRNA 3' processing disruption, beta-gal signal increase – luminescence, S. cerevisiae SKY197-pL101, dose response (AID 2525); assay type: functional, cell-based
[8] = target: T3, Eukaryotic translation initiation factor 2-alpha kinase 3 (Homo sapiens, UniProt Q9NZJ5); assay: Counterscreen assay for PERK inhibitors: Dose response cell-based high throughput screening assay to measure inhibition of PERK at 6 hours. [Related pubchem assays: 1522, 1416 ]; assay type: functional
T3 sequence (Q9NZJ5 whole entry): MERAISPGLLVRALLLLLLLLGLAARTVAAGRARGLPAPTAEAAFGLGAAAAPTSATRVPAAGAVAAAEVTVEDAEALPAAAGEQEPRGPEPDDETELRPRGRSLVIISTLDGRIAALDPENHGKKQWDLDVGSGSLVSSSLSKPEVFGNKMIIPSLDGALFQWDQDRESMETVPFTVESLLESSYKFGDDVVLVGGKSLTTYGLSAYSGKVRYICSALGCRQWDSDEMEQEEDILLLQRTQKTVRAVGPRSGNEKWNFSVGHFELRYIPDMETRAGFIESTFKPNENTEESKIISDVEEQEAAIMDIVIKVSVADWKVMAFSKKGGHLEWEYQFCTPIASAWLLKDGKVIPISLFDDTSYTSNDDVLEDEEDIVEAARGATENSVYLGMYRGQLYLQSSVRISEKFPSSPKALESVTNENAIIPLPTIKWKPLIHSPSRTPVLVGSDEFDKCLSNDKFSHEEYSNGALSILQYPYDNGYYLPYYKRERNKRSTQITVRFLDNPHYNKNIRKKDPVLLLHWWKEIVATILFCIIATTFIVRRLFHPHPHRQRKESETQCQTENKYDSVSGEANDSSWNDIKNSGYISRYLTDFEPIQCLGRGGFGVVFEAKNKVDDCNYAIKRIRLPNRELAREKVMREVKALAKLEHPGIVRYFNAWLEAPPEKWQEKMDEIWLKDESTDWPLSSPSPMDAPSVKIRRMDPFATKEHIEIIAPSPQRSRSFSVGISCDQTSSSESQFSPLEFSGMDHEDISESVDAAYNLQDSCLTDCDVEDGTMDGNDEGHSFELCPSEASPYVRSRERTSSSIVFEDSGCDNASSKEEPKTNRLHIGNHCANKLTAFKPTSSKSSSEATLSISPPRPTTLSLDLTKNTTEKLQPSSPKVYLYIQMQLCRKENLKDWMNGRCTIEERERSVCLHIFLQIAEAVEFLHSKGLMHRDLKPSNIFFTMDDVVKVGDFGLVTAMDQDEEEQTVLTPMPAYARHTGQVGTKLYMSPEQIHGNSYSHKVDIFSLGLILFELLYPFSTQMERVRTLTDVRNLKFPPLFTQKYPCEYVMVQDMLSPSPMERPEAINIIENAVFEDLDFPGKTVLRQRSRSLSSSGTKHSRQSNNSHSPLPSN

[9] = target: T3, Eukaryotic translation initiation factor 2-alpha kinase 3; assay: Dose response cell-based high-throughput screening assay to measure PERK inhibition. [Related pubchem assays: 1416 ]; assay type: functional
Trypanosoma cruzi = assay: anti-trypanosomal activity in host cells – cell-based, plate reader, dry powder, set 3, dose response (AID 493197); assay type: functional
[10] = target: Lysosomal acid glucosylceramidase (Homo sapiens, UniProt P04062); assay: Dose response cell-based high throughput screening assay to identify enhancers of beta-glucosidase activity. [Related pubchem assays: 784 ]; assay type: functional
Sequence of Lysosomal acid glucosylceramidase (P04062 whole entry): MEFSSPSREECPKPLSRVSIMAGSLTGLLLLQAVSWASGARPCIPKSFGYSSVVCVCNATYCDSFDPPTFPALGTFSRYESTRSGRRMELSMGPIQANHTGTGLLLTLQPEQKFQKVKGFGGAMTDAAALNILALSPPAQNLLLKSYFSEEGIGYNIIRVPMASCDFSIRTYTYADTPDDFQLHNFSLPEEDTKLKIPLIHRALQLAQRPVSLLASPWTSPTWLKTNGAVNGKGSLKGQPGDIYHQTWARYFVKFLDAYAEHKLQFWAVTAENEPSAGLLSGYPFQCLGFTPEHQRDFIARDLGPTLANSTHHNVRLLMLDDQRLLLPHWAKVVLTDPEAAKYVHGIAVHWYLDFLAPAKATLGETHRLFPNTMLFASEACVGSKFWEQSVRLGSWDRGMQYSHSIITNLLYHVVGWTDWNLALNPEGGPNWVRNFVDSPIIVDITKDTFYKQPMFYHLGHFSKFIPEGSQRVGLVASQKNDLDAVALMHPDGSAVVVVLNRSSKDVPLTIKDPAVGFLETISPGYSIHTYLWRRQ

[11] = NIH3T3 cell viability loss – ATP luminescence, mouse fibroblasts, counter-screen, dose response (AID 2010); assay type: functional, cell-based;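 further: cells exposed to compound for about 90 hours before reading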
[12] = target: Eukaryotic translation initiation factor 4H (Homo sapiens, UniProt Q15056); assay: eIF4H binding inhibition – biochemical, uHTS, fluorescence polarization, translation initiation inhibitor project, primary screen (AID 2012)
[13] = target: Polyadenylate-binding protein 1 (Homo sapiens, UniProt P11940); assay: blockers of PABP interaction with poly(A) – biochemical, fluorescence polarization, […] (AID 2014)
Sequence of Polyadenylate-binding protein 1 (P11940 whole entry): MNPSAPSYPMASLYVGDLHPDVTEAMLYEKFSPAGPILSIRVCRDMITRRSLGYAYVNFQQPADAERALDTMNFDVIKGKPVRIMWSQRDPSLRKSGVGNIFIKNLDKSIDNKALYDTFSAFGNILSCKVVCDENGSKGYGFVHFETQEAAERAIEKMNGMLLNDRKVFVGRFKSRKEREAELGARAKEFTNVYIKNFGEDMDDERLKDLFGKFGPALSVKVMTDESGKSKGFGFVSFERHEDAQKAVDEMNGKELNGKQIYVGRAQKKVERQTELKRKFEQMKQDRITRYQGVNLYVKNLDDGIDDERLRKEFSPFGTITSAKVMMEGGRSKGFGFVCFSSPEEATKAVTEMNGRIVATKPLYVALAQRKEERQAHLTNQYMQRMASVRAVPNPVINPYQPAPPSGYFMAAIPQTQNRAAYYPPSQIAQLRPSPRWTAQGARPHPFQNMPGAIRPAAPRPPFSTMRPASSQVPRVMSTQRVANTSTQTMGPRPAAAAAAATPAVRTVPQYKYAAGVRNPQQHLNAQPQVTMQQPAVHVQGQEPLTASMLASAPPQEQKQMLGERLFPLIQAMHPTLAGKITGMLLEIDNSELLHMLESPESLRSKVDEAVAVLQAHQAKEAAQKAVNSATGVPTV

[14] = Trypanosoma cruzi growth suppression in host cells – NIH3T3 host cells, beta-gal luminescence, confirmation (AID 2044); assay type: functional, cell-based;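 further: intracellular parasites grown in NIH/3T3 mouse fibroblasts as host cells; luminescent beta-galactosidase reporter signal from transgenic T. cruzi replicating inside host cells; inhibitors lower the luminescence signal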
Salmon testes DNA = assay: acridine orange-DNA binding displacement – biochemical, fluorescence polarization, cherry-picked samples, set 2, artefact control for KSHV LANA DNA-binding inhibitor project, dose response (AID 504727); set-up: species or system Salmonidae
ORF 73 = target: T4, ORF 73 (Human herpesvirus 8, UniProt O40947); assay: KSHV LANA DNA-binding disruption – biochemical, fluorescence polarization, cherry-picked samples, dose response (AID 504725); set-up: species or system Human gammaherpesvirus 8;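 further: fluorescence polarization of a labeled DNA duplex reporting LANA DNA binding; potency is for inhibitors that block LANA binding to the DNA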
T4 sequence (O40947 whole entry): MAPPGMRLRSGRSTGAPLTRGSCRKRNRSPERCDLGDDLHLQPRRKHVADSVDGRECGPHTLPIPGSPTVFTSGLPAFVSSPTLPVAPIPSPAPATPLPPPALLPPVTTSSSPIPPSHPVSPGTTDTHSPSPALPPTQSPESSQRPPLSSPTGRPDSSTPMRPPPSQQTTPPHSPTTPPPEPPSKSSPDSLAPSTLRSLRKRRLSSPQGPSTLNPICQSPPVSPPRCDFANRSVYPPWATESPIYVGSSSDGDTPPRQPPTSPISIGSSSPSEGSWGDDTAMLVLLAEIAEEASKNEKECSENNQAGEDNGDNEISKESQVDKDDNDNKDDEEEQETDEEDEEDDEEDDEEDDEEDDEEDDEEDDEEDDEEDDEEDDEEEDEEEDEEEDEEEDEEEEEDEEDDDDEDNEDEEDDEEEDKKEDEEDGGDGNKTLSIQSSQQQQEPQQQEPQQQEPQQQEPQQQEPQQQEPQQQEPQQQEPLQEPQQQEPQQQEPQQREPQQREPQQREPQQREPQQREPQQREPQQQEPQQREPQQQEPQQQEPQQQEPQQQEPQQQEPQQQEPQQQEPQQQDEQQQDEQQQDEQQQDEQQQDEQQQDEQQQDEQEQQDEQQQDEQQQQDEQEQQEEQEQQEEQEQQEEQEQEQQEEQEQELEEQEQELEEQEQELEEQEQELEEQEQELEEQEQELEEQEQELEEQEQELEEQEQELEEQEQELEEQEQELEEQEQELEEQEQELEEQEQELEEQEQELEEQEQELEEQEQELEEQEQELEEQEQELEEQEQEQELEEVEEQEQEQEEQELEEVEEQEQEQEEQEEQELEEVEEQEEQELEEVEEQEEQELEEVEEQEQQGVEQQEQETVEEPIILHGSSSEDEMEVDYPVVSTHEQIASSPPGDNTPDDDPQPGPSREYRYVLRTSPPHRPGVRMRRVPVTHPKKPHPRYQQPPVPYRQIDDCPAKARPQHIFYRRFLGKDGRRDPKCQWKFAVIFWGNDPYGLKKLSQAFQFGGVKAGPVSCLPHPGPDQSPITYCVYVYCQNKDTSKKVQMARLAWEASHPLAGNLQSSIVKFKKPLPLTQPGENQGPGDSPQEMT

Cytochrome P450 2C9 = Cytochrome P450 2C9 (Homo sapiens, UniProt P11712); settings: Potency
Cytochrome P450 2C19 = Cytochrome P450 2C19 (Homo sapiens, UniProt P33261); assay: qHTS Assay for Inhibitors and Substrates of Cytochrome P450 2C19. [Related pubchem assays: 410 ]; assay type: ADME; settings: read-out: Potency
[15] = target: T5, Heat shock factor protein 1 (Mus musculus, UniProt P38532); assay: decrease of HSF1-responsive luciferase luminescence – cell-based, NIH3T3, dose retest, confirmation (AID 2382); assay type: functional;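 further: NIH3T3 fibroblasts with HSF1-driven luciferase reporter stressed by proteasome inhibitor MG132; luminescence from HSF1-driven luciferase expression after 8 hours of MG132 stress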
T5 sequence (P38532 whole entry): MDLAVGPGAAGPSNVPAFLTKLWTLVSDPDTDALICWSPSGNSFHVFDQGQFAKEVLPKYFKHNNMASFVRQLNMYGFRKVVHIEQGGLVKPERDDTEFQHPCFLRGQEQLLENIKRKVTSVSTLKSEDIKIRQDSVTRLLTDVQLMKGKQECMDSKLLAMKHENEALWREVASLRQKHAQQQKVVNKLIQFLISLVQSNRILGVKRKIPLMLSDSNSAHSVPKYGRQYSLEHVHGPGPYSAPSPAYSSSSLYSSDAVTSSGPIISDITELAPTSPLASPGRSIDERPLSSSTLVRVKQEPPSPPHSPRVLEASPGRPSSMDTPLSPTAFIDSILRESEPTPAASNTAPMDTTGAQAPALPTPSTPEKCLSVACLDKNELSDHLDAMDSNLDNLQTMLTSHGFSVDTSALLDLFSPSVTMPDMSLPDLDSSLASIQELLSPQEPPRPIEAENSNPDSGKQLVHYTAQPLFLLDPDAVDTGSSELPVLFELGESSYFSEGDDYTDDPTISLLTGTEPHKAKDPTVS

[16] = target: Dual specificity protein phosphatase 3 (Homo sapiens, UniProt P51452); assay: inhibition constants for human DUSP3 – biochemical, colorimetric, SAR follow-up (AID 2004)
Sequence of Dual specificity protein phosphatase 3 (P51452 whole entry): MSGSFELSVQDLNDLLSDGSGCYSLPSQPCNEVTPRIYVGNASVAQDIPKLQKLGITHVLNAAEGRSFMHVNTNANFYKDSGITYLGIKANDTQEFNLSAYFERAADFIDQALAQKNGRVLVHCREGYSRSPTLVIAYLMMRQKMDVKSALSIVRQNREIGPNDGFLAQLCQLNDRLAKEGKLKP

[17] = target: Peroxisome proliferator-activated receptor gamma/Nuclear receptor corepressor 2 (Homo sapiens, UniProt P37231+Q9Y618); assay type: functional
Melanocortin receptor 4 = Melanocortin receptor 4 (Homo sapiens, UniProt P32245); assay: inhibitors of MC4R cAMP signaling – cell-based, TR-FRET, biased antagonists, dose response (AID 602298); assay type: functional;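 further: antagonist potency against agonist-stimulated cAMP production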
Sequence of Melanocortin receptor 4 (P32245 whole entry): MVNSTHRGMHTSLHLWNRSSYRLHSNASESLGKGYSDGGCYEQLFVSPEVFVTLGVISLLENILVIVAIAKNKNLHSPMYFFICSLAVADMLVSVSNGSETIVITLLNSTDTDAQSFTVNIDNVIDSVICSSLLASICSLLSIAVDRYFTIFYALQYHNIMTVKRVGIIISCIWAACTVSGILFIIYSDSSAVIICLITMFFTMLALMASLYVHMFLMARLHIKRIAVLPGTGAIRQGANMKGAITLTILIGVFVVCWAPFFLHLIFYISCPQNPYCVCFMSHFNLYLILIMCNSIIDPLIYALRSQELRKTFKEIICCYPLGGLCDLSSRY

[18] = target: Photoreceptor-specific nuclear receptor (Homo sapiens, UniProt Q9Y5X4); assay type: functional;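 further: potency for compounds that break the NR2E3 corepressor complex and count as activators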
[19] = cAMP pathway inhibition in counterscreen cell line – TR-FRET cAMP detection, counter-screen for MC4R biased antagonist project, dose response (AID 602305); assay type: functional, cell-based;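 further: U2OS cells stimulated with forskolin near its EC80 as the cAMP inducer; potency is for inhibition of forskolin-stimulated cAMP signaling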

IC50 [1]: 17.4 µM (inactive)
Compound: Cc1ccc(-n2ncc(Cl)c(Oc3ccc(F)cc3F)c2=O)cc1

EC50 [2]: 0.03 µM (active)
Compound: O=C(Nc1ccc(N2C(=O)c3cccc(Cl)c3C2=O)c(Cl)c1)c1ccccn1

Compound: O=C1CS/C(=C\[N+](=O)[O-])N1c1ccccc1
EC50 [3]: > 300 µM (not active)
EC50 [4]: 190 µM (active)
IC50 (Protein Rev): 3.03 µM (active)
IC50 [5]: > 59.6 µM (inactive)

AC50 (Cytochrome P450 3A4): 39.8 µM (inconclusive)
Compound: COc1ccc(-c2coc3c(OC)c(OC)cc(O)c3c2=O)cc1 [ISOTECTORIGENIN, 7-METHYL ETHER]

Compound: N#CC1(C#N)C2=C(CCCC2)NC(c2ccccc2)C1(C#N)C#N (configuration not stated)
EC50 [6]: 7.92 µM (active)
EC50 [7]: 3.77 µM (active)

EC50 [8]: > 55.7 µM (not active)
EC50 [9]: > 55.7 µM (not active)
Compound: O=C(NNc1ccccc1F)c1ccccc1

Compound: CN(Cc1ccccc1)C(=O)C1CCCN(Cc2ccc([N+](=O)[O-])cc2)C1 (configuration not stated)
AC50 (Trypanosoma cruzi): 7.63 µM (active)

EC50 [10]: > 10 µM (not active)
Compound: CCC(C)n1cnc2c(c1=O)c1nc3ccccc3nc1n2Cc1ccc2c(c1)OCO2 (configuration not stated)

Compound: COc1ccc(N=C(C)N(C)CCNS(=O)(=O)c2ccc(Cl)cc2)cc1Cl
EC50 [11]: > 60 µM (not active)
IC50 [12]: > 100 µM (inactive)
IC50 [13]: 5.82 µM (active)
EC50 [14]: 0.271 µM (active)

AC50 (ORF 73): 59.9 µM (active)
Compound: COC(=O)c1cc(N2CCN(C)CC2)nc2ccccc12
AC50 (Salmon testes DNA): 137 µM (active)

Compound: CCCC[C@@H]1C[C@H]1C(NP(=O)(c1ccccc1)c1ccccc1)c1ccc(Cl)cc1 (some centres not stated)
AC50 (Cytochrome P450 2C9): 15.8 µM (inconclusive)
AC50 (Cytochrome P450 2C19): 10 µM (inconclusive)

Compound: Cc1ccc(S(=O)(=O)N2CCN(C(=O)c3cccc(F)c3)CC2)cc1
EC50 [15]: > 195 µM (not active)
Ki [16]: 39.4 µM (inactive)

Compound: O=C(O)c1cc(-c2ccc3c(c2)OCO3)nc2ccc(Br)cc12
IC50 [17]: 1.76 µM (active)
IC50 (Melanocortin receptor 4): 35.7 µM (inactive)
IC50 [18]: > 39.8 µM (not active)
IC50 [19]: > 64.6 µM (inactive)
